Results taken from PMC2747507 (The Pediatric infectious disease journal, 2009).
Read-outs that look alike come from different tables or passages of the source. Numbered stars: 1 amine (or outer) side, 2 acyl side, 3 side chain; on linkers, the order of the positions; unused ones are H or OH. Bridge positions count the residues as written; N and C are the ends. Square brackets hold non-standard residues; d marks the D form. Peptide text beside a SMILES is read from it. * marks the point of attachment. hTyr(3S-OH,4S-OH,3'-OSO3H) = N[C@H](C(=O)O)[C@H](O)[C@@H](O)c1ccc(O)c(OS(=O)(=O)O)c1; Orn(4R-OH,5R-OH) = O=C([C@H](C[C@@H](O)[C@@H](O)N[*:3])N[*:1])[*:2]; Pro(3S-OH,4S-Me) = C[C@H]1CN[C@H](C(=O)O)[C@H]1O; X1 = CCCCCOc1ccc(-c2cc(-c3ccc(C(=O)*)cc3)no2)cc1; Gln(3R-OH) = NC(=O)C[C@@H](O)[C@H](N)C(=O)O; Hyp = O=C(O)[C@@H]1C[C@@H](O)CN1

Key:
[1] = assay type: in vivo, human (preterm neonates)
[2] = cited from earlier work
[3] = assay type: in vivo, human (preterm neonates); settings: 15 mg/kg/day IV
[4] = tested on: central nervous system infections; settings: neutropenic rabbits; cited from earlier work
[5] = cited from earlier work; remark: listed apart in the source
[6] = 12 neonates, 15 mg/kg/day IV for 5 days, not felt related to micafungin
[7] = neonates <1000 grams (n=7), mean (SD), SD
[8] = neonates ≥1000 grams (n=5), mean (SD), SD

With `CCCCCOc1ccc(-c2cc(-c3ccc(C(=O)N[C@H]4C[C@@H](O)[C@@H](O)NC(=O)[C@@H]5[C@@H](O)[C@@H](C)CN5C(=O)[C@H]([C@H](O)CC(N)=O)NC(=O)[C@H]([C@H](O)[C@@H](O)c5ccc(O)c(OS(=O)(=O)O)c5)NC(=O)[C@@H]5C[C@@H](O)CN5C(=O)[C@H]([C@@H](C)O)NC4=O)cc3)no2)cc1` [micafungin] (X1-[Orn(4R-OH,5R-OH)]T[Hyp][hTyr(3S-OH,4S-OH,3'-OSO3H)][Gln(3R-OH)][Pro(3S-OH,4S-Me)]; lactam 1-C) the “reported AE: hypochloremia” value [1, 6] was 33%, the “reported AE: hypokalemia” value [1, 6] was 25% and the “reported AE: hyponatremia” value [1, 6] was 42%. For the same compound, the “reported AE: monocytosis” value [1, 6] was 25%, the “renal toxicity and changes in hematology parameters” value ([1]; 12 neonates, baseline vs end of therapy) was “No evidence of renal toxicity or significant changes in hematology parameters” and the deaths ([1]; 12 neonates, 3 days after completing the course of micafungin) was “One 540 g neonate died on day of life 11 from necrotizing enterocolitis”. The “Potassium, after 5th dose” value ([1]; median (IQR), prior to 1st dose 4.0 (3.4, 4.4), P 0.03) was 4.6 mmol/L, the “mean CL” value ([2]; 18 neonates > 1000 g, single IV dose 0.75, 1.5 or 3.0 mg/kg) was 0.65 mL/min/kg and the CL ([2]; neonates < 1000g, single dose 0.75 mg/kg, data from 4 patients) was 1.32 mL/min/kg. For the same compound, the “Vdss in neonates from the previous study” value ([2]; single-dose study in neonates) was 0.44 L/kg, the “highest observed AUC0–24” value ([3]; preterm neonates, maximum of n=12) was 555.6 µg·h/mL and the Vdss [3, 7] was 1.637(0.657) L/kg. For the same compound, the Vdβ [3, 7] was 0.636(0.370) L/kg, the Vdss [3, 8] was 1.344(0.141) L/kg and the Vdβ [3, 8] was 0.581(0.106) L/kg. The “Vdβ, volume of distribution in the elimination phase” value ([3]; whole cohort n=12, mean (SD), SD) was 0.613(0.282) L/kg, the Cmax ([3]; whole cohort n=12, obtained directly from the data, mean (SD), SD) was 38.4(8.8) ug/mL and the Vdss ([3]; whole cohort n=12, weight-normalized, mean (SD), SD) was 1.515(0.516) L/kg. For the same compound, the “treatment of central nervous system infections” value [4] was “Successful treatment”, the Vdss ([5]; adult studies) was 0.26 L/kg and the “average AUC” value ([5]; adults, 150 mg dose) was 166.7 µg·h/mL. For the same compound, the CL ([5]; adults) was 0.16 mL/min/kg, the CL ([5]; children ages 2–8 years) was 0.38 mL/min/kg and the CL ([5]; children ages 9–17 years) was 0.28 mL/min/kg.
